# PMC8349443 (Journal of the Indian Chemical Society, 2021)
# How the values were obtained:
# [1] = system: plasma C-Reactive Protein (CRP) and procalcitonin; conditions: ref [7], [8], [9]; cited from earlier work
# SARS-CoV-2 virus = assay: Antiviral potentiality against SARS-CoV-2; assay type: cell-based; conditions: isolate of SARS-CoV-2
smiles,measurement,setting,value
"N[C@@H](CC(=O)N1CCn2c(nnc2C(F)(F)F)C1)Cc1cc(F)c(F)cc1F [SIT, Sitagliptin]",possible immuno-modulatory effect: plasma CRP and procalcitonin,[1],plasma C-Reactive Protein (CRP) and procalcitonin reduction
same,antiviral activity against SARS-CoV-2 in words,SARS-CoV-2 virus,have antiviral activity against an isolate of SARS-CoV-2
